Laboratory results reported in patent publication US12473304B2, “Heterocyclic PAD4 inhibitors” (BRISTOL-MYERS SQUIBB COMPANY, priority 2020, dated 2025).

Target: human PAD4 (hPAD4) (Homo sapiens (Human), UniProt Q9UM07)
Assay: RFMS Human PAD4 Functional Assay 1
Format: biochemical
Conditions: RFMS assay 1; 5 nM hPAD4, 250 μM BAEE substrate, 50 μM calcium, 37° C.
How it was run: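 Recombinant hPAD4 (5 nM) was preincubated with compound (top 50 μM, 0.5% DMSO) for 30 min at 37 °C, then reacted with 250 μM BAEE for 90 min at 37 °C in pH 7.5 HEPES buffer with 50 μM calcium and 5 μM TPEN. Product was derivatized with phenyl glyoxal and quantified by RapidFire MS.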

human PAD4 (hPAD4), sequence (Q9UM07 whole entry): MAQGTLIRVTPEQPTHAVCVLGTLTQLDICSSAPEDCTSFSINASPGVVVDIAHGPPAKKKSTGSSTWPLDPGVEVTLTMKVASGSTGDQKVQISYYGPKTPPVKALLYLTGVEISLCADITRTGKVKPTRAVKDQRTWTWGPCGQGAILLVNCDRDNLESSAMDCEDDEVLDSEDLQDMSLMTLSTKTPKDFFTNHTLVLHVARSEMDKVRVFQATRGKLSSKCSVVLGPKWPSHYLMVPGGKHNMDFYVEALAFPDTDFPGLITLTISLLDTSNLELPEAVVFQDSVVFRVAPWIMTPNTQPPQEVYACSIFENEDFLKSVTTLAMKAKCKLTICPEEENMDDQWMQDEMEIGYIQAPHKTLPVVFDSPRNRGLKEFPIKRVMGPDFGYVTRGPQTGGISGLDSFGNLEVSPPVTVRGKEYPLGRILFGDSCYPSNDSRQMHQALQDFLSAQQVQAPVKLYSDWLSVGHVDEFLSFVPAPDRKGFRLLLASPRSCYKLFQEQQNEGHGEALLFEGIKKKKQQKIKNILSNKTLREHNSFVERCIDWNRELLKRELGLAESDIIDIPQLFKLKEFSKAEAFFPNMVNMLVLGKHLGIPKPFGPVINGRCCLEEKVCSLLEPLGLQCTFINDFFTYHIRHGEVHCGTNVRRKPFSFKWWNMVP

IC50 [nM] | SMILES
1010 | COc1cc(C(=O)N2CC3CCC2[C@@H]3N)cc2oc(-c3cc4ccc(-c5ccc(O)c(F)c5)cc4n3CC3CC3)c(C)c12 (stereo partly drawn) [Example 154, ((7R)-7-Amino-2-azabicyclo[2.2.1]heptan-2-yl)(2-(1-(cyclopropylmethyl)-6-(3-fluoro-4-hydroxyphenyl)-1H-indol-2-yl)-4-methoxy-3-methylbenzofuran-6-yl)methanone]
173 | COc1cc(C(=O)N2CC3CCC2[C@@H]3N)cc2oc(-c3cc4ccc(C5CC5)cc4n3CC3CC3)c(C)c12 (stereo partly drawn) [Example 156, ((7R)-7-Amino-2-azabicyclo[2.2.1]heptan-2-yl)(2-(6-cyclopropyl-1-(cyclopropylmethyl)-1H-indol-2-yl)-4-methoxy-3-methylbenzofuran-6-yl)methanone]
95 | COc1cc(C(=O)N2CC3CCC2[C@@H]3N)cc2oc(-c3cc4ccc(-c5ccn6c(C)nnc6c5)cc4n3CC3CC3)c(C)c12 (stereo partly drawn) [Example 157, ((7R)-7-Amino-2-azabicyclo[2.2.1]heptan-2-yl)(2-(1-(cyclopropylmethyl)-6-(3-methyl-[1,2,4]triazolo[4,3-a]pyridin-7-yl)-1H-indol-2-yl)-4-methoxy-3-methylbenzofuran-6-yl)methanone]
1210 | COc1cc(C(=O)N2CC3CCC2[C@@H]3N)cc2oc(-c3cc4ccc(N5CCC(OC)CC5)cc4n3CC3CC3)c(C)c12 (stereo partly drawn) [Example 159, ((7R)-7-Amino-2-azabicyclo[2.2.1]heptan-2-yl)(2-(1-(cyclopropylmethyl)-6-(4-methoxypiperidin-1-yl)-1H-indol-2-yl)-4-methoxy-3-methylbenzofuran-6-yl)methanone]
48 | COc1cc(C(=O)N2CC3CCC2[C@@H]3N)cc2oc(-c3cc4ccc(N5CCC(N)CC5)cc4n3CC3CC3)c(C)c12 (stereo partly drawn) [Example 160, ((7R)-7-Amino-2-azabicyclo[2.2.1]heptan-2-yl)(2-(6-(4-aminopiperidin-1-yl)-1-(cyclopropylmethyl)-1H-indol-2-yl)-4-methoxy-3-methylbenzofuran-6-yl)methanone]
487 | COc1cc(C(=O)N2C[C@H](N)C[C@@H](F)C2)cc2oc(-c3cc4ccccc4n3CC3CC3)c(C)c12 [Example 161, ((3R,5R)-3-Amino-5-fluoropiperidin-1-yl)(2-(1-(cyclopropylmethyl)-1H-indol-2-yl)-4-methoxy-3-methylbenzofuran-6-yl)methanone]
2290 | COc1cc(C(=O)N2C[C@H](N)C[C@@H](F)C2)cc2oc(-c3cc4ccc(-c5ccc(C(N)=O)c(Cl)c5)cc4n3CC3CC3)c(C)c12 [Example 162, 4-(2-(6-((3R,5R)-3-Amino-5-fluoropiperidine-1-carbonyl)-4-methoxy-3-methylbenzofuran-2-yl)-1-(cyclopropylmethyl)-1H-indol-6-yl)-2-chlorobenzamide]
5590 | COc1cc(C(=O)N2C[C@H](N)C[C@@H](F)C2)cc2oc(-c3cc4ccc(-c5cccc(O)c5F)cc4n3CC3CC3)c(C)c12 [Example 163, ((3R,5R)-3-Amino-5-fluoropiperidin-1-yl)(2-(1-(cyclopropylmethyl)-6-(2-fluoro-3-hydroxyphenyl)-1H-indol-2-yl)-4-methoxy-3-methylbenzofuran-6-yl)methanone]
625 | Cc1c(-c2cc3cccnc3n2CC2CC2)oc2cc(C(=O)N3CC4CCC3[C@@H]4N)ccc12 (stereo partly drawn) [Example 164, ((7R)-7-Amino-2-azabicyclo[2.2.1]heptan-2-yl)(2-(1-(cyclopropylmethyl)-1H-pyrrolo[2,3-b]pyridin-2-yl)-3-methylbenzofuran-6-yl)methanone]
198 | Cc1c(-c2cc3ccc(Cl)nc3n2CC2CC2)oc2cc(C(=O)N3CC4CCC3[C@@H]4N)ccc12 (stereo partly drawn) [Example 165, ((7R)-7-Amino-2-azabicyclo[2.2.1]heptan-2-yl)(2-(6-chloro-1-(cyclopropylmethyl)-1H-pyrrolo[2,3-b]pyridin-2-yl)-3-methylbenzofuran-6-yl)methanone]
56 | Cc1c(-c2cc3ccc(-c4ccc5c(c4)C(=O)NC5)nc3n2CC2CC2)oc2cc(C(=O)N3CC4CCC3[C@@H]4N)ccc12 (stereo partly drawn) [Example 166, 6-(2-(6-((7R)-7-Amino-2-azabicyclo[2.2.1]heptane-2-carbonyl)-3-methylbenzofuran-2-yl)-1-(cyclopropylmethyl)-1H-pyrrolo[2,3-b]pyridin-6-yl)isoindolin-1-one]
45 | Cc1c(-c2cc3ccc(-c4ccn5c(C)nnc5c4)nc3n2CC2CC2)oc2cc(C(=O)N3CC4CCC3[C@@H]4N)ccc12 (some centres unmarked) [Example 167]
47 | Cc1c(-c2cc3ccc(-c4ccc5c(c4)CNC5=O)nc3n2CC2CC2)oc2cc(C(=O)N3CC4CCC3[C@@H]4N)ccc12 (stereo partly drawn) [Example 168, 5-(2-(6-((7R)-7-Amino-2-azabicyclo[2.2.1]heptane-2-carbonyl)-3-methylbenzofuran-2-yl)-1-(cyclopropylmethyl)-1H-pyrrolo[2,3-b]pyridin-6-yl)isoindolin-1-one]
181 | Cc1c(-c2cc3ccc(-c4cccc(O)c4F)nc3n2CC2CC2)oc2cc(C(=O)N3CC4CCC3[C@@H]4N)ccc12 (stereo partly drawn) [Example 169, ((7R)-7-Amino-2-azabicyclo[2.2.1]heptan-2-yl)(2-(1-(cyclopropylmethyl)-6-(2-fluoro-3-hydroxyphenyl)-1H-pyrrolo[2,3-b]pyridin-2-yl)-3-methylbenzofuran-6-yl)methanone]
135 | Cc1c(-c2cc3ccc(-c4ccc(C(N)=O)c(F)c4)nc3n2CC2CC2)oc2cc(C(=O)N3CC4CCC3[C@@H]4N)ccc12 (stereo partly drawn) [Example 170, 4-(2-(6-((7R)-7-amino-2-azabicyclo[2.2.1]heptane-2-carbonyl)-3-methylbenzofuran-2-yl)-1-(cyclopropylmethyl)-1H-pyrrolo[2,3-b]pyridin-6-yl)-2-fluorobenzamide]
76 | Cc1ccc2cc(-c3oc4cc(C(=O)N5CC6CCC5[C@@H]6N)ccc4c3C)n(CC3CC3)c2n1 (stereo partly drawn) [Example 171, ((7R)-7-Amino-2-azabicyclo[2.2.1]heptan-2-yl)(2-(1-(cyclopropylmethyl)-6-methyl-1H-pyrrolo[2,3-b]pyridin-2-yl)-3-methylbenzofuran-6-yl)methanone]
8770 | COc1cc(-c2ccc3cc(-c4oc5cc(C(=O)N6CC7CCC6[C@@H]7N)ccc5c4C)n(CC4CC4)c3n2)ccn1 (stereo partly drawn) [Example 172, ((7R)-7-Amino-2-azabicyclo[2.2.1]heptan-2-yl)(2-(1-(cyclopropylmethyl)-6-(2-methoxypyridin-4-yl)-1H-pyrrolo[2,3-b]pyridin-2-yl)-3-methylbenzofuran-6-yl)methanone]
90 | COC1CN(c2ccc3cc(-c4oc5cc(C(=O)N6CC7CCC6[C@@H]7N)ccc5c4C)n(CC4CC4)c3n2)C1 (stereo partly drawn) [Example 173, ((7R)-7-Amino-2-azabicyclo[2.2.1]heptan-2-yl)(2-(1-(cyclopropylmethyl)-6-(3-methoxyazetidin-1-yl)-1H-pyrrolo[2,3-b]pyridin-2-yl)-3-methylbenzofuran-6-yl)methanone]
204 | Cc1c(-c2cc3cccnc3n2CC2CC2)oc2cc(C(=O)N3C[C@H](N)C[C@@H](F)C3)ccc12 [Example 174, ((3R,5R)-3-Amino-5-fluoropiperidin-1-yl)(2-(1-(cyclopropylmethyl)-1H-pyrrolo[2,3-b]pyridin-2-yl)-3-methylbenzofuran-6-yl)methanone]
830 | Cc1c(-c2cc3ccc(-c4ccc5c(c4)C(=O)NC5)nc3n2CC2CC2)oc2cc(C(=O)N3C[C@H](N)C[C@@H](F)C3)ccc12 [Example 175, 6-(2-(6-((3R,5R)-3-Amino-5-fluoropiperidine-1-carbonyl)-3-methylbenzofuran-2-yl)-1-(cyclopropylmethyl)-1H-pyrrolo[2,3-b]pyridin-6-yl)isoindolin-1-one]
229 | Cc1c(-c2cc3ccccc3n2CC2CC2)oc2cc(C(=O)N3CC4CCC3[C@@H]4N)ccc12 (stereo partly drawn) [Example 176, ((7R)-7-Amino-2-azabicyclo[2.2.1]heptan-2-yl)(2-(1-(cyclopropylmethyl)-1H-indol-2-yl)-3-methylbenzofuran-6-yl)methanone]
69 | Cc1c(-c2cc3ccc(-c4ccc5c(c4)C(=O)NC5)cc3n2CC2CC2)oc2cc(C(=O)N3CC4CCC3[C@@H]4N)ccc12 (stereo partly drawn) [Example 177, 6-(2-(6-((7R)-7-Amino-2-azabicyclo[2.2.1]heptane-2-carbonyl)-3-methylbenzofuran-2-yl)-1-(cyclopropylmethyl)-1H-indol-6-yl)isoindolin-1-one]
153 | Cc1c(-c2cc3ccc(-c4ccc5c(c4)CNC5=O)cc3n2CC2CC2)oc2cc(C(=O)N3CC4CCC3[C@@H]4N)ccc12 (stereo partly drawn) [Example 178, 5-(2-(6-((7R)-7-Amino-2-azabicyclo[2.2.1]heptane-2-carbonyl)-3-methylbenzofuran-2-yl)-1-(cyclopropylmethyl)-1H-indol-6-yl)isoindolin-1-one]
35 | Cc1c(-c2cc3ccc(-c4ccn5c(C)nnc5c4)cc3n2CC2CC2)oc2cc(C(=O)N3CC4CCC3[C@@H]4N)ccc12 (stereo partly drawn) [Example 179, ((7R)-7-Amino-2-azabicyclo[2.2.1]heptan-2-yl)(2-(1-(cyclopropylmethyl)-6-(3-methyl-[1,2,4]triazolo[4,3-a]pyridin-7-yl)-1H-indol-2-yl)-3-methylbenzofuran-6-yl)methanone]
220 | Cc1c(-c2cc3ccc(-c4cnn(C(C)C)c4)cc3n2CC2CC2)oc2cc(C(=O)N3CC4CCC3[C@@H]4N)ccc12 (stereo partly drawn) [Example 180, ((7R)-7-Amino-2-azabicyclo[2.2.1]heptan-2-yl)(2-(1-(cyclopropylmethyl)-6-(1-isopropyl-1H-pyrazol-4-yl)-1H-indol-2-yl)-3-methylbenzofuran-6-yl)methanone]
269 | Cc1c(-c2cc3ccc(-c4cccc(O)c4F)cc3n2CC2CC2)oc2cc(C(=O)N3CC4CCC3[C@@H]4N)ccc12 (stereo partly drawn) [Example 181, ((7R)-7-Amino-2-azabicyclo[2.2.1]heptan-2-yl)(2-(1-(cyclopropylmethyl)-6-(2-fluoro-3-hydroxyphenyl)-1H-indol-2-yl)-3-methylbenzofuran-6-yl)methanone]
